Like-named read-outs stand apart in the source and are kept apart here.
System: GROα-induced expression of the integrin CD11b on neutrophils in human whole blood
Assay: CD11b human whole blood assay
Format: cell-based
Conditions: Neutrophil, 10 nM GROα
Procedure: The compounds indicated were tested for their ability to inhibit the GROα-induced expression of the integrin CD11b on neutrophils in human whole blood.
Blood was drawn (9 ml) using a butterfly line and a 10 ml syringe containing 0.2 ml of working Sodium Heparin. The blood was kept at 37° C. until placed on ice in step 5 below. Compound stock solutions were then diluted to 12 times the maximum final concentration, 120 uM. Half Log serial dilutions were then performed in vehicle. Ten microliters of the compound dilutions or vehicle were then added to the appropriate 12×75 polypropylene tubes. One hundred microliters of whole blood was added per tube and incubated for 10 minutes, in a 37° C. water bath with initial (gentle) agitation and again at 5 minutes. The GROα stock was diluted 1:166.66 in 0.1% BSA-DPBS to “12×” concentration of 120 nM and 10 ul of the GROα dilution or 01% BSA-DPBS was added to the appropriate tubes so that the final GROα concentration equaled 10 nM. The tubes were incubated for 10 min at 37° C. with gentle hand agitation and again at 5 minutes. Samples were then placed on ice and 250 ul of ice cold CellFix working dilution was added followed by a one minute incubation on ice. 1.5 ml Eppendorf tubes were readied during GROα incubation by adding the appropriate antibodies. Every tube received 10 ul of CD11b-FITC and 5 ul of CD16-PE, except for the isotype control which received 10 ul of IgG2a-FITC instead of CD11b. Addition of 50 ul of the fixed blood from each tube was added to the appropriate Eppendorf tube. Samples were allowed to then incubate for 20 min at 4° C. in the dark. Addition of the blood/antibody mixtures to 500 ul of cold DPBS were added to the appropriately labeled 12×75 polystyrene tube. The resulting mixture was kept on ice. LDS stock (10 ul) was added and the mixture was incubated for 10 min at 4° C. before flow analysis. Samples were kept in a darkened environment. The LDS addition was staggered as the samples were collected on the flow cytometer so that all samples were run ˜10-20 minutes post-LDS addition.
Medium flow rate was used for flow collection and FL3 threshold increased to eliminate red blood cells from analysis using the LDS signal. The color compensation was properly set using unlabeled samples and one-color samples to subtract LDS spill into PE and the PE spill into FITC and FITC into PE. For the BD LSR cytometer, LDS=FL3, PE=FL2, FITC=FL1. A minimum of 2000-3000 events that satisfy the granulocyte gate by SSC vs. FSC and were CD16 positive by the FL2 signal were collected.

[1] = activity threshold, read-out: IC50, inhibition of GROα-induced CD11b expression on neutrophils
[2] = from about 3 uM to about 0.7 uM, read-out: IC50, inhibition of GROα-induced CD11b expression on neutrophils (span of the tested compounds)

| SMILES | IC50 [1] [nM] | IC50 [2] [nM] |
| --- | --- | --- |
| O=C(Nc1ccc(Cl)c(S(=O)(=O)N2CC3CC2CN3)c1O)Nc1cccc(F)c1Cl (racemic) [Example 23, (+/−)-N-[4-chloro-3-(2,5-diazabicyclo[2.2.1]hept-2-ylsulfonyl)-2-hydroxyphenyl]-N′-(2-chloro-3-fluorophenyl)urea] | < 5000 | 700 to 3000 |
| CCc1ccccc1NC(=O)Nc1ccc(Cl)c(S(=O)(=O)N2C[C@H]3C[C@@H]2CN3)c1O (stereo in doubt) [Example 12, N-{4-chloro-3-[(1R,4R)-2,5-diazabicyclo[2.2.1]hept-2-ylsulfonyl]-2-hydroxyphenyl}-N′-(2-ethylphenyl)urea] | < 5000 | 700 to 3000 |
| O=C(Nc1ccc(Cl)c(S(=O)(=O)N2C3CC[C@H]2CNC3)c1O)Nc1cccc(F)c1Cl (stereo in doubt) [Example 45, N-{4-chloro-3-[(1S,5S)-3,8-diazabicyclo[3.2.1]oct-8-ylsulfonyl]-2-hydroxyphenyl}-N′-(2-chloro-3-fluorophenyl)urea] | < 5000 | 700 to 3000 |
| O=C(Nc1ccc(Cl)c(S(=O)(=O)N2C[C@@H]3C[C@H]2CN3)c1O)Nc1cccc(F)c1Cl [Example 1, N-[4-chloro-3-[(1S,4S)-2,5-diazabicyclo[2.2.1]hept-2-ylsulfonyl]-2-hydroxyphenyl]-N′-(2-chloro-3-fluorophenyl)urea] | < 5000 | 700 to 3000 |
| O=C(Nc1ccc(Cl)c(S(=O)(=O)N2C[C@@H]3C[C@H]2CN3CC2CC2)c1O)Nc1cccc(F)c1Cl [Example 2, N-(4-chloro-3-{[(1S,4S)-5-(cyclopropylmethyl)-2,5-diazabicyclo[2.2.1]hept-2-yl]sulfonyl}-2-hydroxyphenyl)-N′-(2-chloro-3-fluorophenyl)urea] | < 5000 | 700 to 3000 |
| O=C(Nc1cccnc1Cl)Nc1ccc(Cl)c(S(=O)(=O)N2CCn3ccnc3C2)c1O [Example 3, N-[4-chloro-3-(5,6-dihydroimidazo[1,2-a]pyrazin-7(8H)-ylsulfonyl)-2-hydroxyphenyl]-N′-(2-chloro-3-pyridinyl)urea] | < 5000 | 700 to 3000 |
| Cc1c(F)cccc1NC(=O)Nc1ccc(Cl)c(S(=O)(=O)N2C[C@H]3CC[C@@H](C2)N3)c1O [Example 17, N-[4-chloro-3-(3,8-diazabicyclo[3.2.1]oct-3-ylsulfonyl)-2-hydroxyphenyl]-N′-(3-fluoro-2-methylphenyl)urea] | < 5000 | 700 to 3000 |
| O=C(Nc1ccccc1Oc1ccccc1)Nc1ccc(Cl)c(S(=O)(=O)N2C[C@H]3CC[C@@H](C2)N3)c1O [Example 18, N-[4-chloro-3-(3,8-diazabicyclo[3.2.1]oct-3-ylsulfonyl)-2-hydroxyphenyl]-N′-[2-(phenyloxy)phenyl]urea] | < 5000 | 700 to 3000 |
| O=C1C[C@H]2CC[C@@H](C1)N2S(=O)(=O)c1c(Cl)ccc(NC(=O)Nc2cccc3c2OC(F)(F)O3)c1O [Example 26, N-(4-chloro-2-hydroxy-3-{[(1R,5S)-3-oxo-8-azabicyclo[3.2.1]oct-8-yl]sulfonyl}phenyl)-N′-(2,2-difluoro-1,3-benzodioxol-4-yl)urea] | < 5000 | 700 to 3000 |

From US8097626B2, “IL-8 receptor antagonists” (GlaxoSmithKline LLC, priority 2006, dated 2012)
